In patent publication US11753453B2, “Peptide kinase inhibitors and methods of use thereof” (B.G. NEGEV TECHNOLOGIES AND APPLICATIONS LTD., priority 2017, dated 2023):
Blank lines part the entries; values can stand above or below the molecule they belong to.

Legend:
[1] = tested on: MDA-MB-231 (breast cancer); assay: Scratch (wound healing) assay, MDA-MB-231; type: cell-based; conditions: MDA-MB-231, scratch assay
Description: (§1) FIG. 3A is a photograph taken from the scratch assay performed on MDA-MB-231 cells. Cells were seeded in 24-well plate and incubated for 4 hours with the indicated peptides in a free-serum media. After 4 hours, a scratch was made with a 200 μl pipette tip. Photographs of a selected area of each scratch were taken at indicated time points. Areas were measured by ImageJ software. FIGS. 3B-3D are graphs representing the analysis of the scratch assay performed as described in […] on cell lines MDA-MB-231, MCF-7 and MCF10A, respectively. All values were normalized to time 0 of each well and presented in percentage.
(§2) MCF-7 and MDA-MB-231 cells were seeded in 24-well plates and grown to full confluency. Subsequently, media with low serum (2% to MCF-7 and 0.1% to MDA-MB-231) containing the peptides were added to the wells for 4 h. Then, a scratch was placed in the middle of the well with a sterile 200 μl pipette tip (Eppendorf). After washing once with PBS, the respective treatments were returned. Wells were photographed at total magnification of 4× with an IX70 Olympus Optical light microscope (Tokyo, Japan). 3 Images for each well were taken every 24 h.
(§3) The in vitro effect of PKCeta uORF2 on cancer cell migration was tested […] by a standard scratch test assay, as described above. […]

[2] = tested on: MDA-MB-231; assay: PrestoBlue cell viability/proliferation assay, MDA-MB-231; type: cell-based; conditions: compared with uPEP9-26, uPEP18-26 and ηPS
Description: (§4) FIGS. 4A-4D show the ability of the peptide encoded by uORF2 (uPEP21-26) to reduce viability of breast cancer and glioblastoma cells. FIG. 4A: MCF-7 cells were seeded onto 48-well plates. 24 hours later, the cells were incubated for 24 hours with the indicated peptides). Following incubation, the medium with tested peptide was gently aspirated from each well and 25 μL of PrestoBlue reagent was added to each well of the 48-well plate and incubated at 37° C. in 5% CO2 for 15 min, as recommended. The absorbance was detected by ‘Infinite M200 PRO’ reader. FIGS. 4B-4D are the results of experiments identical to that described by FIG. 4A, but performed on cells lines U251 MG (glioblastoma cell line), MDA-MB-231 and MCF10A, respectively.
(§5) MCF-7 and MDA-MB-231 cells were seeded at 2×10^4 cells/well in 48-well plates. After 24 h serum free-media containing the peptides was added to the wells for 4 h. Then, medium with serum was added and the plate was incubated for 24 h at incubator (5% CO2 humidified atmosphere at 37° C.). Following incubation, the medium with tested peptide was gently aspirated from each well and 25 μL of PrestoBlue™ reagent (Thermo #A13261) was added to each well of the 48-well plate and incubated at 37° C. in 5% CO2 for 15 min, as recommended. The absorbance was recorded at 570 nm and detected by ‘Infinite M200 PRO’ reader. […]

[3] = biological target: T1, PKCη (Homo sapiens, UniProt P24723); assay: In vitro kinase assay of PKCη with Myelin Basic Protein as substrate; type: biochemical; conditions: p-MBP, γ-32P radioactive kinase assay; compared to control peptide uPEP9-26 and ηPS; peptides 2 or 10 μM
T1 construct: HA; expressed in transfected cells
Description: (§6) FIG. 2A is a schematic view of the peptides derived from PKCη and used in the examples described herein. uPEP1-26 refers to the complete peptide encoded by uORF2; uPEP9-26 and uPEP18-26 refer to control peptides, which lack the PS motif; ηPS refer to a peptide containing the internal PS domain of PKCη. […] The kinase activity of PKCη was measured using Myelin Basic Protein (p-MBP) as a substrate and γ-^32P radioactive kinase assays. All values were normalized to the control sample without a peptide (Cont.). The data shown are the means of three separate experiments, and is also presented as the gel in FIG. 2C. FIG. 2D: Kinase assays were conducted as described in FIG. 2B, using uPEP1-26 at 2 μM concentration are depicted. All values were normalized to the control sample (without peptide). The data shown are the means of three separate experiments.
(§7) Immunoprecipitations were performed by using pre-absorbed mAbs on protein A/G-agarose beads for 1 h at room temperature. Excess Abs was removed by 3 washes in cold phosphate buffered saline (PBS) and Ab-coated beads were incubated with cell lysates overnight at 4° C. Immune complexes were precipitated by centrifugation followed by extensive washing with RIPA buffer without SDS (10 mM Tris-HCl pH 8.0, 100 mM NaCl, 5 mM EGTA, 1% NP-40, 45 mM β-mercaptoethanol, and 50 mM NaF). […] Kinase activity was evaluated with exposing reagents. […]

[4] = tested on: PKCs from the novel PKC subfamily; assay: In vitro kinase assay on PKC subfamilies; type: biochemical; conditions: peptide at 2 μM; normalized to control without peptide
Description: as §6, §7

[5] = tested on: MCF7; assay: PrestoBlue cell viability/proliferation assay, MCF7; type: cell-based; conditions: compared with uPEP9-26, uPEP18-26 and ηPS
Description: as §4, §5

[6] = tested on: MCF7 (breast cancer); assay: Scratch (wound healing) assay, MCF7; type: cell-based
Description: as §1, §2, §3

[7] = tested on: U251 MG (glioblastoma cell line); assay: PrestoBlue cell viability/proliferation assay, U251 MG; type: cell-based; conditions: compared with uPEP9-26, uPEP18-26 and ηPS
Description: as §4, §5

[8] = tested on: MDA-MB-231; assay: XTT cell viability assay, MDA-MB-231; type: cell-based; conditions: 5 μM and 10 μM, compared to the other peptides
Description: (§8) FIGS. 6A-6C show the efficacy of uORF2-encoded peptide mutated at position 10 (uPEP1-26[c/a]) in reducing cell viability on various cell lines. FIG. 6A: MCF-7 cells were seeded in 96 well plate and incubated for 24 hours with the indicated peptides. After 24 hours, the proliferation rate was monitored using XTT kit (Biological Industries, Israel) according to the manufacturer's instructions.
(§9) Cells were seeded on 96-wells plate at a cell density of 20,000 cells/well and were grown for 48 hours. Cells were treated as indicated for 48 hours. A XTT (#20-300-1000, Biological Industries) reaction solution was prepared (containing the XTT and activation solutions) and added (50 μl/well) into cell medium for 2-4 hours at 37° C. The plate was immediately read in an ELISA plate reader at 450-500 nm. Background reading was performed at 630 nm, and the results calculated as the differences between the values.
(§10) A uPEP21-26[10C/A] mutation of the PKCeta uORF2 peptide (SEQ ID NO: 1) was synthesized containing an alanine substitution at Cys-10, herein referred to as SEQ ID No 5. Cell lines MCF-7 (FIG. 6A), MDA-MB-231 (FIG. 6B) and HeLa (FIG. 6C) were treated with uPEP218-26, uPEP21-26, uPEP21-26[10C/A], uPEP21-17 and ηPS at doses of 5 μM and 10 μM in order to determine cell proliferation.

[9] = tested on: HeLa; assay: XTT cell viability assay, HeLa; type: cell-based; conditions: 5 μM and 10 μM, compared to the other peptides
Description: as §8, §9, §10

[10] = tested on: MCF-7; assay: XTT cell viability assay, MCF-7; type: cell-based; conditions: 5 μM and 10 μM, compared to the other peptides
Description: as §8, §9, §10

[11] = tested on: 4T1 cells; assay: Breast 4T1 mouse model with PKCη knockdown cells; type: in vivo; conditions: 4T1 cells expressing shRNA vs scrambled control, female BALB/c mice
Description: FIG. 7A: 4T1 cells expressing shPKCη (SEQ ID NO: 33) or scrambled control were injected into mammary fat pad of 8-week-old female BALB/c mice. Tumor diameters were measured every week with vernier calipers. FIG. 7B: The mice were sacrificed after 8 weeks, and number of metastasis formed in the lungs was counted using Bouin's solutions. Error bars represent the mean±s.e.m, statistical analysis indicates for statistical significance in two-tailed, unpaired sample t-test.
Mice were anesthetized with a solution of 10 ml/mg Ketamine and 1.17 ml/mg xylazine, in saline. Anesthesia was injected intraperitoneally (IP) after sterilizing the inoculation area of the mice with 70% ethanol solution. Using a 27-gauge needle, 4T1 control and shPKCη knockdown cells (transfected with SEQ ID NOs 33-35 or scrambled control (obtained from the ATCC) were injected a few millimeters from the nipple, underneath the skin (120,000 cells in 50 μl per mouse).
Each week, mice were tested for tumors and the primary tumors were examined by caliper. After 10 weeks, mice were euthanized and examined for metastases in lung, liver and spleen, and samples were prepared for immuno staining.
To test the in vivo effects of PKCeta on tumor formation, the establishment and growth of breast cancer cells with (4T1 control cells) and without PKCeta (PKCeta knockdown 4T1 cells) was compared.

T1 sequence (P24723 whole entry): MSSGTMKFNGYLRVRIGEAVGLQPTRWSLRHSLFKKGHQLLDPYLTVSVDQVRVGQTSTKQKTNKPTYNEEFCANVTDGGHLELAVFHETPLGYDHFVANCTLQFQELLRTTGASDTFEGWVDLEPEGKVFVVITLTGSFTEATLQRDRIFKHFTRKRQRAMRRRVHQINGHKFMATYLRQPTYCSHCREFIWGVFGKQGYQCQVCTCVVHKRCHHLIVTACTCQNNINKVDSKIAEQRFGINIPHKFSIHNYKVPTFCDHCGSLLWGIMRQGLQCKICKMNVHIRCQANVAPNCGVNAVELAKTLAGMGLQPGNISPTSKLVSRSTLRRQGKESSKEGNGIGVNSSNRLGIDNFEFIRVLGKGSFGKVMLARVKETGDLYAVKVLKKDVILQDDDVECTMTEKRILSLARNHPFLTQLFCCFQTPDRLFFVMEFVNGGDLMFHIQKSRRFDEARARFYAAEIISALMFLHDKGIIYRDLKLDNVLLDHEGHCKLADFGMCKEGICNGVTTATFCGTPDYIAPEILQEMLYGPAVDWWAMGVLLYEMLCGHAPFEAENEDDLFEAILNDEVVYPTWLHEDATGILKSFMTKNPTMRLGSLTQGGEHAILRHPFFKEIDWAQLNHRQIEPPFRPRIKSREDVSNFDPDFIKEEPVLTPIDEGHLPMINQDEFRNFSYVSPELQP

inhibition of kinase activity of PKCη [3]: strongest inhibitor
inhibition of kinase activity of PKCs from the novel PKC subfamily [4]: strongly inhibits
Molecule: uPEP1-26: full-length human PKCeta uORF2 peptide, 26 amino acids; MASRGALRRXLSPGLPRLLHLSRGLA wherein X is C (MASRGALRRCLSPGLPRLLHLSRGLA; listed as Homo sapiens)
inhibition of cell migration [1]: inhibited migration
inhibition of cell proliferation [2]: inhibited cell proliferation the most
inhibition of cell proliferation [5]: inhibited cell proliferation the most
inhibition of cell migration [6]: inhibited migration
inhibition of cell proliferation [7]: inhibited cell proliferation the most

Molecule: uPEP1-26[10C/A]: full-length PKCeta derived uORF peptide with alanine substitution at Cys-10; MASRGALRRXLSPGLPRLLHLSRGLA wherein X is A (MASRGALRRALSPGLPRLLHLSRGLA)
reduction of cell viability [8]: efficiently reduced cell viability
reduction of cell viability [9]: efficiently reduced cell viability
reduction of cell viability [10]: efficiently reduced cell viability

B1: SEQ ID NO: 33: shRNA sequence for targeting PKCη expression (nucleic acid)
chain: GATCCCCGGCCCGTCTTAACTCCGATTGATCTCGATCAATCGGAGTTAAGACGGGTTTTTG
formation of tumor metastases (lungs) [11]: inhibited the formation of tumor metastases
tumor volume over time ([11]; mammary fat pad): significant inhibition in tumor size
